From ChEMBL document CHEMBL1158918, “Novel marine sponge amino acids, 10. Xestoaminols from Xestospongia sp” (1990)

Experiments:
[1] = Inhibition of reverse transcriptase at 1 mg/ml; design: scale not given: the % may be the effect or the level left
Staphylococcus aureus = test: Antimicrobial activity against Staphylococcus aureus at 100 ug/disk; assay type: functional; conditions: read-out: IZ
[2] = test system: Nippostrongylus brasiliensis; test: Antihelminthic activity against Nippostrongylus brasiliensis 4 instar larvae assessed as reduction in motility at 50 ug/mL; assay type: functional; design: scale not given: the % may be the effect or the level left
Escherichia coli = test: Antimicrobial activity against Escherichia coli at 100 ug/disk; assay type: functional; conditions: read-out: IZ
[3] = test system: Nippostrongylus brasiliensis; test: Antihelminthic activity against Nippostrongylus brasiliensis 4 instar larvae assessed as reduction in viability at 50 ug/mL; assay type: functional
[4] = test system: Nippostrongylus brasiliensis; test: Antihelminthic activity against Nippostrongylus brasiliensis 4 instar larvae assessed as reduction in cast formation at 50 ug/mL; assay type: functional; design: scale not given: the % may be the effect or the level left
Streptococcus pyogenes [5] = test: Antimicrobial activity against Streptococcus pyogenes at 100 ug/disk; assay type: functional; conditions: read-out: IZ
Candida albicans [6] = test: Antimicrobial activity against Candida albicans at 100 ug/disk; assay type: functional; conditions: read-out: IZ
[7] = test system: Trichophyton mentagrophytes; test: Antimicrobial activity against Trichophyton mentagrophytes at 100 ug/disk; assay type: functional; conditions: read-out: IZ
[8] = test system: Trichophyton mentagrophytes; test: Antimicrobial activity against Trichophyton mentagrophytes at 10 ug/disk; assay type: functional; conditions: read-out: IZ
Candida albicans [9] = test: Antimicrobial activity against Candida albicans at 10 ug/disk; conditions: read-out: IZ
Streptococcus pyogenes [10] = test: Antimicrobial activity against Streptococcus pyogenes at 10 ug/disk; assay type: functional, organism-based

For `CCCCCCCCCCC[C@@H](O)[C@H](C)N` (relative stereo), the Activity [1] was 95%.

In the case of `CC/C=C/CCCCCCC[C@@H](O)[C@H](C)N` (relative stereo) [XETOAMINOL A], the zone of inhibition at 100 µg/disc (Staphylococcus aureus) is reported as 3 mm, the Activity [2] is reported as 100% and the zone of inhibition at 100 µg/disc (Escherichia coli) is reported as 7 mm. It also gave an Activity [1] of 97%, an Activity [3] of 100% and an Activity [4] of 90%. It also gave a zone of inhibition at 100 µg/disc (Streptococcus pyogenes [5]) of 4 mm, a zone of inhibition at 100 µg/disc (Candida albicans [6]) of 7 mm and a zone of inhibition at 100 µg/disc [7] of 13 mm.

`Clc1ccc(COC(Cn2ccnc2)c2ccc(Cl)cc2Cl)c(Cl)c1` (stereo not drawn) [MICONAZOLE] gave a zone of inhibition at 10 µg/disc [8] of 11 mm and a zone of inhibition at 10 µg/disc (Candida albicans [9]) of 10 mm.

Molecule GENTAMICIN has an inhibition zone (IZ) (Streptococcus pyogenes [10]) of 10 mm.
